Results on two compounds are retold here after patent US20230265151A1, “GIP/GLP1 CO-AGONIST COMPOUNDS” (priority 2020, published 2023).

What all share (type): cell-based
In one test the target is T1, hGCGR (Homo sapiens, UniProt P47871).
T1 construct: expressed in transfected cells
Kind of test: Functional cAMP formation (HTRF) in HEK-293 clonal cells expressing hGCGR, 0.1% bovine casein, without or with 1.0% human serum albumin. The conditions noted are these: geometric mean. In short, it runs like this: (§1)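 Cells were stimulated with peptide for 30 min at 37° C, then lysed in buffer carrying cAMP-d2 and anti-cAMP Eu3+-cryptate for a competitive HTRF read after at least 60 min at room temperature. The 665/620 nm ratio was converted to nM cAMP against a standard curve.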

The next test concerns the target hGLP-1R (Homo sapiens, UniProt P43220). Description: Functional cAMP formation (HTRF) in HEK-293 clonal cells expressing hGLP-1R, 0.1% bovine casein, without or with 1.0% human serum albumin. The arrangement: expressed in transfected cells. The conditions noted are these: 37° C. In short, it runs like this:
as §1

The target in another test is T2, hGIPR (Homo sapiens, UniProt P48546).
T2 construct: expressed in transfected cells
T2 sequence (P48546 22-466): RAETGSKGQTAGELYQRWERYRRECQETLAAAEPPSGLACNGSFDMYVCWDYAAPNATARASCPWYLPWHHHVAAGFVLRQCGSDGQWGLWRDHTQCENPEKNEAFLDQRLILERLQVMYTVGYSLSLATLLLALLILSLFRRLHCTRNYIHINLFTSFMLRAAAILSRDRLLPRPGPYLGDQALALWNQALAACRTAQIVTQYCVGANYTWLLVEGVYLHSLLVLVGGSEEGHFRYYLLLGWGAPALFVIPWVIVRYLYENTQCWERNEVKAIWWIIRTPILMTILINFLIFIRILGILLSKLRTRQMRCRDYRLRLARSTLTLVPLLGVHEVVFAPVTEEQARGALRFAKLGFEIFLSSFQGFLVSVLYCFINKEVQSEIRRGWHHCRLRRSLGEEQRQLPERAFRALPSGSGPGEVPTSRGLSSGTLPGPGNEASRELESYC
Kind of test: Functional cAMP formation (HTRF) in HEK-293 clonal cells expressing hGIPR, 0.1% bovine casein, without or with 1.0% human serum albumin. The conditions noted are these: 37° C. In short, it runs like this: as §1

Structures are written as SMILES. Where two headings read alike, the source gives them in different places.

Sequence of hGLP-1R (P43220 24-463): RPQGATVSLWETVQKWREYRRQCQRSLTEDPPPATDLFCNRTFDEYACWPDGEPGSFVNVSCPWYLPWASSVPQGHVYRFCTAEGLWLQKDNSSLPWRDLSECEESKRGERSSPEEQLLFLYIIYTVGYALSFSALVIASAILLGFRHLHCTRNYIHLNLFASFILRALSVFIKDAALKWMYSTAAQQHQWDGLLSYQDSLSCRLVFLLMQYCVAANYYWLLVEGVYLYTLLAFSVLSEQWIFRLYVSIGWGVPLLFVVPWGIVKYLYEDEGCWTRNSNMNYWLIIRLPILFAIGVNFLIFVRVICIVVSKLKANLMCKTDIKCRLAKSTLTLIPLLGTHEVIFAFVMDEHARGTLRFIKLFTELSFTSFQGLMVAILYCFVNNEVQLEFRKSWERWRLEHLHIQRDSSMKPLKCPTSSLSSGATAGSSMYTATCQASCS
T1 sequence (P47871 26-477): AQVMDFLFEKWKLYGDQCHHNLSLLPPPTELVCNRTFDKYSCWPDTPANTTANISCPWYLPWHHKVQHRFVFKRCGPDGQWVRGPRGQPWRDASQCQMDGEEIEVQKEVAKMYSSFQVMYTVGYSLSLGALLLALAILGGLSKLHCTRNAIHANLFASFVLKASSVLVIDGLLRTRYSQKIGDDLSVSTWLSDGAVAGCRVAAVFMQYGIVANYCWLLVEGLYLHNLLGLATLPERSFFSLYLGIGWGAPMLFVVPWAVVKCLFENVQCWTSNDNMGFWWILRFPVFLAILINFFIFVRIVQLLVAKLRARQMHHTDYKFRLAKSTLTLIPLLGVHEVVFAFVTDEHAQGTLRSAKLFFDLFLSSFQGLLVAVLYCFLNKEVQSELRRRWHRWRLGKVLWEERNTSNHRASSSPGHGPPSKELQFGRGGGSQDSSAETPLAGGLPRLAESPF

On to `CC[C@H](C)[C@H](NC(=O)[C@H](CC(C)C)NC(=O)[C@](C)(Cc1ccccc1)NC(=O)[C@H](CCCCNC(=O)COCCOCCNC(=O)COCCOCCNC(=O)CC[C@H](NC(=O)CCCCCCCCCCCCC(=O)O)C(=O)O)NC(=O)[C@@H](NC(=O)[C@](C)(Cc1ccccc1)NC(=O)[C@H](CCC(=O)O)NC(=O)C(C)(C)NC(=O)[C@H](CCC(N)=O)NC(=O)[C@H](C)NC(=O)[C@H](CCCCNC(=O)COCCOCCNC(=O)COCCOCCNC(=O)CC[C@H](NC(=O)CCCCCCCCCCCCC(=O)O)C(=O)O)NC(=O)[C@H](CCCN)NC(=O)[C@H](CC(=O)O)NC(=O)[C@H](CC(C)C)NC(=O)[C@](C)(CC(C)C)NC(=O)[C@@H](NC(=O)[C@H](CO)NC(=O)[C@H](Cc1ccncc1)NC(=O)[C@H](CC(=O)O)NC(=O)[C@H](CO)NC(=O)[C@@H](NC(=O)[C@](C)(Cc1ccccc1F)NC(=O)[C@@H](NC(=O)CNC(=O)[C@H](CCC(=O)O)NC(=O)C(C)(C)NC(=O)[C@@H](N)Cc1ccc(O)cc1)[C@@H](C)O)[C@@H](C)O)[C@@H](C)CC)[C@@H](C)CC)C(=O)N[C@@H](CCC(=O)O)C(=O)NCC(=O)NCC(=O)N1CCC[C@H]1C(=O)N[C@@H](CO)C(=O)N[C@@H](CO)C(=O)NCC(=O)N[C@@H](C)C(=O)N1CCC[C@H]1C(=O)N1CCC[C@H]1C(=O)N1CCC[C@H]1C(=O)N[C@@H](CO)C(N)=O` [Example 84], for which the EC50 on hGCGR (hGCGR EC50, nM (SEM, n), cAMP, incubated at 37° C., 0.1% bovine casein (no human serum albumin)) was above 9950 nM. The Emax on hGLP-1R (HEK293, read-out: hGLP-1R Emax, % ± SEM, percent of maximal response to GLP-1(7-36)NH2, 0.1% bovine casein, arithmetic mean) was 94%; on hGIPR (HEK293, read-out: hGIPR Emax, % ± SEM, percent of maximal response to GIP(1-42)NH2, 0.1% bovine casein, arithmetic mean), 98.5%.

`CCCCCCCCCCCC(=O)N[C@@H](CCC(=O)NCCOCCOCC(=O)NCCOCCOCC(=O)NCCCC[C@H](NC(=O)[C@H](CCCN)NC(=O)[C@H](CC(=O)O)NC(=O)[C@H](CC(C)C)NC(=O)[C@](C)(CC(C)C)NC(=O)[C@@H](NC(=O)[C@H](CO)NC(=O)[C@H](Cc1ccc(OC)cc1)NC(=O)[C@H](CC(=O)O)NC(=O)[C@H](CO)NC(=O)[C@@H](NC(=O)[C@](C)(Cc1ccccc1F)NC(=O)[C@@H](NC(=O)CNC(=O)[C@H](CCC(=O)O)NC(=O)C(C)(C)NC(=O)[C@@H](N)Cc1ccc(O)cc1)[C@@H](C)O)[C@@H](C)O)[C@@H](C)CC)C(=O)N[C@@H](C)C(=O)N[C@@H](CCC(N)=O)C(=O)NC(C)(C)C(=O)N[C@@H](CCCCNC(=O)COCCOCCNC(=O)COCCOCCNC(=O)CC[C@H](NC(=O)CCCCCCCCCCC)C(=O)O)C(=O)N[C@@H](Cc1ccccc1)C(=O)N[C@H](C(=O)N[C@H](CCC(=O)O)C(=O)N[C@@](C)(Cc1ccc(O)cc1)C(=O)N[C@@H](CC(C)C)C(=O)N[C@H](C(=O)N[C@@H](CCC(=O)O)C(=O)NCC(=O)NCC(=O)N1CCC[C@H]1C(=O)N[C@@H](CO)C(=O)N[C@@H](CO)C(=O)NCC(=O)N[C@@H](C)C(=O)N1CCC[C@H]1C(=O)N1CCC[C@H]1C(=O)N1CCC[C@H]1C(=O)N[C@@H](CO)C(N)=O)[C@@H](C)CC)[C@@H](C)CC)C(=O)O` [Example 289]: the EC50 is above 9950 nM on hGCGR (0.1% bovine casein and 1.0% human serum albumin, 37° C., read-out: hGCGR EC50, nM (SEM, n)); above 9950 nM on hGCGR (cAMP, 37° C., 0.1% bovine casein (no human serum albumin), read-out: hGCGR EC50, nM (SEM, n)); 0.017 nM on hGIPR (cAMP, 0.1% bovine casein (no human serum albumin), geometric mean, read-out: hGIPR EC50, nM (SEM, n)). Besides, the Emax is 170% at hGLP-1R (HEK293, 0.1% bovine casein and 1.0% human serum albumin, percent of maximal response to GLP-1(7-36)NH2, read-out: hGLP-1R Emax, % ± SEM); 96.7% on hGLP-1R (HEK293, cAMP, 0.1% bovine casein, percent of maximal response to GLP-1(7-36)NH2, arithmetic mean, read-out: hGLP-1R Emax, % ± SEM); 94.9% on hGIPR (HEK293, 0.1% bovine casein and 1.0% human serum albumin, percent of maximal response to GIP(1-42)NH2, read-out: hGIPR Emax, % ± SEM); 111% on hGIPR (HEK293, cAMP, 0.1% bovine casein, percent of maximal response to GIP(1-42)NH2, arithmetic mean, read-out: hGIPR Emax, % ± SEM).
